Values quoted from earlier work as cited in US6576673B2, “Method of deterring woodpeckers” (priority 2001, dated 2003).

Test system: golden fronted adult woodpeckers
Details: painted or applied to a surface of a utility pole; smaller golden fronted adult woodpeckers

## CC1=CC(=O)CC(C)(C)C1 [Isophorone, 3,5,5-trimethyl-2-cyclohexen-one-1]
  repelling woodpeckers: effective in repelling woodpeckers
